The source of these data is patent US20210009542A1 (Calico Life Sciences LLC, priority 2018, published 2021).

Like-named read-outs stand apart in the source and are kept apart here.

The target of assay [1] is T1, His tagged full-length PTP1B protein (Homo sapiens, UniProt P18031).
T1 construct: made in house
T1 sequence (P18031 with tags, fused parts or gaps): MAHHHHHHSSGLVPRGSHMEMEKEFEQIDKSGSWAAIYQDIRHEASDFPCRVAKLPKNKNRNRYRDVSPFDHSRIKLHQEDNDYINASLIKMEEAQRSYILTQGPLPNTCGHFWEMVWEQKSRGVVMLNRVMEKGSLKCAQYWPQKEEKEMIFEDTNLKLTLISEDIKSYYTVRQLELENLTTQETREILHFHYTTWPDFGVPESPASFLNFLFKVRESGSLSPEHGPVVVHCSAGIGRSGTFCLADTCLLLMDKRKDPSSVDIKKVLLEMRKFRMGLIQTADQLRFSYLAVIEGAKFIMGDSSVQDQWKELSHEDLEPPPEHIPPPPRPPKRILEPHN
The experiment in a line: Mobility shift assay (MSA) for potency of PTP1B inhibitors. The assay is classed as biochemical. The method, then: The enzymatic assay used to determine activity is a mobility shift assay using a LabChip EZ Reader by Caliper Life Sciences. The enzymatic reaction was carried out in assay buffer (50 mM HEPES pH 7.5, 1 mM EGTA, 10 mM EDTA, 0.01% Tween® 20, and 2 mM DTT). […] The enzyme (at 0.5 nM) was incubated with compound for 10 minutes at room temperature. […] The % inhibition was then used to calculate the IC50 values.

The subject of assay [2] is B16F10 mouse melanoma cells. The experiment in a line: B16F10 IFNγ-induced cellular growth inhibition assay. The assay is classed as cell-based. The settings on record: Mus musculus, B16-F10, 33 μM compound. Summed up:
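Live-cell imaging of confluence every 6 h over 5 days at 37 °C tracked growth of mouse B16F10 melanoma cells seeded overnight at 500/well. Semi-log compound series (final 100–0.001 μM, 0.1% DMSO) ran in both arms, ±IFNγ at 0.5 ng/mL final; inhibition taken relative to DMSO plus IFNγ when IFNγ-free DMSO wells passed 95% confluence.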

Assay [3] concerns the target T2, His tagged PTPN2 (TC45) protein (Homo sapiens, UniProt P17706).
T2 construct: made in house
T2 sequence (P17706 with tags, fused parts or gaps isoform P17706-2): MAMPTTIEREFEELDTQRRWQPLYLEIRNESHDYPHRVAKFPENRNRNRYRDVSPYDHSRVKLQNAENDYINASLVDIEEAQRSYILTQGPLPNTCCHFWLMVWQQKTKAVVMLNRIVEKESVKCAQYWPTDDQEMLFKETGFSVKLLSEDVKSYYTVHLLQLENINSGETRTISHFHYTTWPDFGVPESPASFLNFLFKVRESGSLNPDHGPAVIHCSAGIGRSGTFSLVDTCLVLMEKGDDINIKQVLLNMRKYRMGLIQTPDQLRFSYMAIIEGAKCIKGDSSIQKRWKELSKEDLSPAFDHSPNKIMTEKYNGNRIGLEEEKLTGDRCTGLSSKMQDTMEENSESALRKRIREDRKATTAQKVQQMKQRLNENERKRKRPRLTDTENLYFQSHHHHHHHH
The experiment in a line: Mobility shift assay (MSA) for potency of PTPN2 inhibitors. As to conditions: read-out: PTPN2 MSA IC50. It counts as biochemical. An outline of the steps:
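IC50 values were derived from % inhibition of substrate conversion, measured by microfluidic mobility shift (ex 488/em 530) after quenching. The fluorescent phosphotyrosine insulin-receptor peptide ([…]) reacted for 10 min at room temperature with 0.5 nM His-tagged TC45 PTPN2 that had been preincubated 10 min with compound (12 points, 1:3). Buffer was HEPES pH 7.5 with EGTA, EDTA, Tween 20 and DTT.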

Setting [4] is: +0.5 ng/mL IFNγ, relative to DMSO control, read-out: % B16F10 growth inhibition (+0.5 ng/mL IFNγ) @ 33 μM.
Where [5] appears, read: no IFNγ, read-out: % B16F10 growth inhibition (no IFNγ) @ 33 μM.

For orientation: IC50 means the point on the concentration scale where inhibition reaches its midpoint. For `CC(O)CCOc1ccc2cc(O)c(N3CC(=O)NS3(=O)=O)c(F)c2c1` (centres unmarked) [Compound 156, 5-[1-fluoro-3-hydroxy-7-(3-hydroxybutoxy)naphthalen-2-yl]-1λ^6,2,5-thiadiazolidine-1,1,3-trione], the IC50 in assay [1] was 0.001 to 0.01 µM; in assay [3], under 0.001 µM. Besides, the results for the inhibition at 33 µM in assay [2] (setting [4]) and in assay [2] (setting [5]) were 60 to 90% and under 25%, respectively.
For `CN(C)CCOc1ccc2cc(O)c(N3CC(=O)NS3(=O)=O)c(F)c2c1` [Compound 131, 5-{7-[2-(dimethylamino)ethoxy]-1-fluoro-3-hydroxynaphthalen-2-yl}-1λ^6,2,5-thiadiazolidine-1,1,3-trione], in that order: 0.01 to 0.1 µM, 0.001 to 0.01 µM, over 90% and under 25%.
For `O=C1CN(c2c(O)cc3ccc(OCC4CC4(F)F)cc3c2F)S(=O)(=O)N1` (centres unmarked) [Compound 210, 5-{7-[(2,2-difluorocyclopropyl)methoxy]-1-fluoro-3-hydroxynaphthalen-2-yl}-1λ^6,2,5-thiadiazolidine-1,1,3-trione], the IC50 was 0.001 to 0.01 µM in assay [1] and under 0.001 µM in assay [3]. In addition, the inhibition at 33 µM in assay [2] (setting [4]) is over 90%; in assay [2] (setting [5]) it was under 25%.
The like results for `CC[C@H]1C[C@@H]1COc1ccc2cc(O)c(N3CC(=O)NS3(=O)=O)c(F)c2c1` (racemic) [Compound 218, 5-(7-{[rac-(1R,2R)-2-ethylcyclopropyl]methoxy}-1-fluoro-3-hydroxynaphthalen-2-yl)-1λ^6,2,5-thiadiazolidine-1,1,3-trione] were, in that order, 0.001 to 0.01 µM, 0.001 to 0.01 µM, 25 to 59% and under 25%.
Take `O=C1CN(c2c(O)cc3ccc(CC4CCN(S(=O)(=O)C5CC5)C4)cc3c2F)S(=O)(=O)N1` (centres unmarked) [Compound 261, 5-(7-{[1-(cyclopropanesulfonyl)pyrrolidin-3-yl]methyl}-1-fluoro-3-hydroxynaphthalen-2-yl)-1λ^6,2,5-thiadiazolidine-1,1,3-trione]: the half-maximal inhibitory concentration (IC50) in assay [1] and in assay [3] was 0.001 to 0.01 µM throughout. Besides, the inhibition at 33 µM was 25 to 59% in assay [2] (setting [4]) and under 25% in assay [2] (setting [5]).
Take `O=C1CN(c2c(O)cc3ccc(NC4CCN(S(=O)(=O)C5CC5)C4)cc3c2F)S(=O)(=O)N1` (centres unmarked) [Compound 306, 5-(7-{[1-(cyclopropanesulfonyl)pyrrolidin-3-yl]amino}-1-fluoro-3-hydroxynaphthalen-2-yl)-1λ^6,2,5-thiadiazolidine-1,1,3-trione]: the IC50 in assay [1] was in the range of 0.01 to 0.1 µM; in assay [3] it was 0.001 to 0.01 µM. Also, the values for the inhibition at 33 µM in assay [2] (setting [4]) and in assay [2] (setting [5]) were 60 to 90% and under 25%, respectively.
Turning to `O=C1CN(c2c(O)cc3ccc(OCCC4CC4(F)F)cc3c2F)S(=O)(=O)N1` (centres unmarked) [Compound 192, 5-{7-[2-(2,2-difluorocyclopropyl)ethoxy]-1-fluoro-3-hydroxynaphthalen-2-yl}-1λ^6,2,5-thiadiazolidine-1,1,3-trione], the IC50 in assay [1] and in assay [3] was under 0.001 µM in each case. The inhibition at 33 µM in assay [2] (setting [4]) was 60 to 90%; in assay [2] (setting [5]), under 25%.
With `CS(=O)(=O)N1CCC(F)(COc2ccc3cc(O)c(N4CC(=O)NS4(=O)=O)c(F)c3c2)C1` (centres unmarked) [Compound 307, 5-(1-fluoro-7-{[3-fluoro-1-(methanesulfonyl)pyrrolidin-3-yl]methoxy}-3-hydroxynaphthalen-2-yl)-1λ^6,2,5-thiadiazolidine-1,1,3-trione], the half-maximal inhibitory concentration (IC50) in assay [1] and in assay [3] was 0.001 to 0.01 µM in each case. Further, the figures for the inhibition at 33 µM in assay [2] (setting [4]) and in assay [2] (setting [5]) were 25 to 59% and under 25%, respectively.
Regarding `CS(=O)(=O)N1CCC(COc2ccc3cc(O)c(N4CC(=O)NS4(=O)=O)c(F)c3c2)C1` (centres unmarked) [Compound 173, 5-(1-fluoro-3-hydroxy-7-{[1-(methanesulfonyl)pyrrolidin-3-yl]methoxy}naphthalen-2-yl)-1,2,5-thiadiazolidine-1,1,3-trione], the IC50 was 0.01 to 0.1 µM in assay [1] and under 0.001 µM in assay [3].
As to `O=C1CN(c2c(O)cc3ccc(C4CCN(CC5CC5)C4)cc3c2F)S(=O)(=O)N1` (centres unmarked) [Compound 222, 5-{7-[1-(cyclopropylmethyl)pyrrolidin-3-yl]-1-fluoro-3-hydroxynaphthalen-2-yl}-1λ^6,2,5-thiadiazolidine-1,1,3-trione], the IC50 is 0.01 to 0.1 µM in assay [1] and over 0.1 µM in assay [3].
As to `CC(O)COc1ccc2cc(O)c(N3CC(=O)NS3(=O)=O)c(F)c2c1` (centres unmarked) [Compound 135, 5-[1-fluoro-3-hydroxy-7-(2-hydroxypropoxy)naphthalen-2-yl]-1λ^6,2,5-thiadiazolidine-1,1,3-trione], the IC50 in assay [1] was in the range of 0.01 to 0.1 µM; in assay [3], 0.001 to 0.01 µM.
Turning to `CCCS(=O)(=O)N1CC=C(c2ccc3cc(O)c(N4CC(=O)NS4(=O)=O)c(F)c3c2)C1` [Compound 288], the IC50 in assay [1] and in assay [3] was under 0.001 µM each time.
Regarding `CCCC(C)S(=O)(=O)N1CC=C(c2ccc3cc(O)c(N4CC(=O)NS4(=O)=O)c(F)c3c2)C1` (centres unmarked) [Compound 294, 5-{1-fluoro-3-hydroxy-7-[1-(pentane-2-sulfonyl)-2,5-dihydro-1H-pyrrol-3-yl]naphthalen-2-yl}-1λ^6,2,5-thiadiazolidine-1,1,3-trione], the IC50 in assay [1] and in assay [3] was under 0.001 µM in each case.
Turning to `O=C1CN(c2c(O)cc3ccc(C4CCCN4)cc3c2F)S(=O)(=O)N1` (centres unmarked) [Compound 258, 5-[1-fluoro-3-hydroxy-7-(pyrrolidin-2-yl)naphthalen-2-yl]-1λ^6,2,5-thiadiazolidine-1,1,3-trione], the IC50 in assay [1] is 0.01 to 0.1 µM; in assay [3] it was 0.001 to 0.01 µM.
In the case of `O=C1CN(c2c(O)cc3ccc(C4=CCN(S(=O)(=O)CC5COCCO5)C4)cc3c2F)S(=O)(=O)N1` (centres unmarked) [Compound 292, 5-(7-{1-[(1,4-dioxan-2-yl)methanesulfonyl]-2,5-dihydro-1H-pyrrol-3-yl}-1-fluoro-3-hydroxynaphthalen-2-yl)-1λ^6,2,5-thiadiazolidine-1,1,3-trione], the IC50 in assay [1] and in assay [3] was under 0.001 µM in each case.
`O=C1CN(c2c(O)cc3ccc([C@@H]4CCNC4)cc3c2F)S(=O)(=O)N1` (single isomer, unassigned) [Compound 232]: the figures for the IC50 in assay [1] and in assay [3] were 0.01 to 0.1 µM and 0.001 to 0.01 µM, respectively.
Regarding `O=C1CN(c2c(O)cc3ccc(C4=CCN(S(=O)(=O)CC5CCCCO5)C4)cc3c2F)S(=O)(=O)N1` (centres unmarked) [Compound 289, 5-(1-fluoro-3-hydroxy-7-{1-[(oxan-2-yl)methanesulfonyl]-2,5-dihydro-1H-pyrrol-3-yl}naphthalen-2-yl)-1λ^6,2,5-thiadiazolidine-1,1,3-trione], the IC50 in assay [1] and in assay [3] was under 0.001 µM throughout.
With `O=C1CN(c2c(O)cc3ccc(OC(CO)CCl)cc3c2F)S(=O)(=O)N1` (centres unmarked) [Compound 272, 5-{7-[(1-chloro-3-hydroxypropan-2-yl)oxy]-1-fluoro-3-hydroxynaphthalen-2-yl}-1λ^6,2,5-thiadiazolidine-1,1,3-trione], the results for the IC50 in assay [1] and in assay [3] were 0.01 to 0.1 µM and 0.001 to 0.01 µM, respectively.
The like results for `CC(C)S(=O)(=O)N1CCC(c2ccc3cc(O)c(N4CC(=O)NS4(=O)=O)c(F)c3c2)C1` (centres unmarked) [Compound 308, 5-{1-fluoro-3-hydroxy-7-[1-(propane-2-sulfonyl)pyrrolidin-3-yl]naphthalen-2-yl}-1λ^6,2,5-thiadiazolidine-1,1,3-trione] were, in that order, 0.001 to 0.01 µM and under 0.001 µM.
For `O=C1CN(c2c(O)cc3ccc(C4CCCN4C(=O)C4CC4)cc3c2F)S(=O)(=O)N1` (centres unmarked) [Compound 187, 5-{7-[1-(cyclopropanecarbonyl)pyrrolidin-2-yl]-1-fluoro-3-hydroxynaphthalen-2-yl}-1λ^6,2,5-thiadiazolidine-1,1,3-trione], in that order: 0.01 to 0.1 µM and 0.001 to 0.01 µM.
